Results reported in US20240383845A1, “NAPHTHALENEDITHIOL AND DERIVATIVE THEREOF, AND PRODUCTION PROCESS AND USE FOR THE SAME” (SUGAI CHEMICAL INDUSTRY CO., LTD., priority 2021, published 2024).

Tests used:
[1] = Refractive index (abbe refractometer); type: physicochemical
Experimental: The refractive index of each sample was measured using an abbe refractometer (“NAR-lT” manufactured by ATAGO CO., LTD.) at a temperature of 25° C. and a wavelength of 589 nm. Depending on the species of each sample, the refractive index was measured as follows.
For the after-mentioned 16NDSH, 15NDSH, 26NDSH and 27NDSH; 15DGNDSH; 15DHENDSH; 16DMNDSH and 15DMNDSH; and 16DCNDSH and 15DCNDSH, a sample was dissolved in 1,3-dimethyl-2-imidazolidinone (DMI) to prepare multiple solutions with different concentrations, and the refractive index of each solution was measured at a temperature of 25° C. and a wavelength of 589 nm. From the results of the refractive index at each concentration, the refractive index value at 100% by mass of the concentration was determined by extrapolation.
For the after-mentioned 16NDSHMA, 15NDSHMA, 26NDSHMA and 27NDSHMA; 16NDSHA and 15NDSHA; 15DANDSH; and 15DVNDSH, polymerization may occur during the mixing, and thus a sample was dissolved in a methoquinone/DMI solution (a solution containing 4000 ppm of methoquinone relative to the mass of DMI) to prepare multiple solutions with different concentrations. The refractive index of each solution was measured at a temperature of 25° C. and a wavelength of 589 nm. From the results of the refractive index at each concentration, the refractive index value at 100% by mass of the concentration was determined by extrapolation.
For the after-mentioned 16DANDSH; 16DVNDSH; 16DGNDSH; and 16DHENDSH, a sample was liquid for a while after preparation, and thus the refractive index was measured in the state of an undiluted solution. Further, thiol-ene-based resins (thiol-ene-based resins obtained from 16NDSH or 15NDSH and divinylbenzene) were measured in the same manner. […]

[2] = Dissolubility or compatibility (maximum dissolved concentration, HPLC); type: physicochemical; settings: for Dissolubility, Ethyl acetate / Dissolubility, MMA / Dissolubility, PGMEA / Dissolubility, Styrene / Dissolubility, Toluene / Dissolubility, DMF / Dissolubility, THF / Dissolubility, Methanol: 25° C.; for Dissolubility, MMA: methyl methacrylate; for Dissolubility, PGMEA: propylene glycol monomethyl ether acetate; for Dissolubility, DMF: N,N-dimethylformamide; for Dissolubility, THF: tetrahydrofuran
Experimental: In more detail, the sample was added to a predetermined amount of a solvent or a polymerizable component until the sample was no longer dissolved, and the sample content of the liquid layer (the solvent layer) of the resulting mixture was analyzed using an HPLC (“SPD-20A” manufactured by SHIMADZU CORPORATION), and thus the concentration (the maximum dissolved concentration) of the sample in the liquid layer (the solvent layer) was determined as a solubility.

[3] = stated for the raw material used, method not stated
[4] = 25° C., 589 nm, methoquinone/DMI solutions, value at 100% by mass by extrapolation
[5] = 25° C., 589 nm, DMI solutions of different concentrations, value at 100% by mass by extrapolation
[6] = 25° C., 589 nm, measured as undiluted liquid (also thiol-ene-based resins)

| SMILES | Refractive index [1, 3] | Dissolubility, Ethyl acetate [2] | Dissolubility, MMA [2] | Dissolubility, PGMEA [2] | Dissolubility, Styrene [2] | Dissolubility, Toluene [2] | melting point [°C] | Refractive index [1, 4] | Dissolubility, DMF [2] [% by mass] | Dissolubility, THF [2] [% by mass] | Refractive index [1, 5] | saturation solubility ([2]; in PMMA resin composition) | Dissolubility, Methanol [2] [% by mass] | saturation solubility ([2]; in 55% divinylbenzene (isomer mixture)) | saturation solubility ([2]; in curable composition with bisphenol A-type liquid epoxy resin) | saturation solubility ([2]; in styrene (curable resin)) | Refractive index [1, 6] |
| --- | --- | --- | --- | --- | --- | --- | --- | --- | --- | --- | --- | --- | --- | --- | --- | --- | --- |
| CCc1nc(C)c[nH]1 [2-ethyl-4-methylimidazole] | 1.499 | – | – | – | – | – | – | – | – | – | – | – | – | – | – | – | – |
| C=CCSc1cccc2c(SCC=C)cccc12 [Example 15DANDSH, 1,5-bis(allylthio)naphthalene] | – | 16.4 % by mass | 26.6 % by mass | 13.7 % by mass | 10.6 % by mass | 26.1 % by mass | 78 to 79 | 1.653 | – | – | – | – | – | – | – | – | – |
| O=C(O)CSc1cccc2c(SCC(=O)O)cccc12 [Example 15DCNDSH, 1,5-bis(carboxymethylthio)naphthalene] | – | 0.03 % by mass | < 0.01 % by mass | 0.02 % by mass | – | – | – | – | 10.1 | 0.67 | 1.657 | – | – | – | – | – | – |
| c1cc(SCC2CO2)c2cccc(SCC3CO3)c2c1 (stereo not shown) [Example 15DGNDSH, 1,5-bis(glycidylthio)naphthalene] | – | 51.9 % by mass | 60.9 % by mass | 62.3 % by mass | 43.6 % by mass | 56.8 % by mass | 50 to 53 | – | – | – | 1.621 | – | – | – | – | – | – |
| OCCSc1cccc2c(SCCO)cccc12 [Example 15DHENDSH, 1,5-bis(2-hydroxyethylthio)naphthalene] | – | 3.01 % by mass | 34.7 % by mass | 3.60 % by mass | 0.35 % by mass | 0.19 % by mass | 84 to 86 | – | – | – | 1.668 | – | – | – | – | – | – |
| CSc1cccc2c(SC)cccc12 [Example 15DMNDSH, 1,5-bis(methylthio)naphthalene] | – | 1.25 % by mass | 1.44 % by mass | 1.25 % by mass | 3.13 % by mass | 2.36 % by mass | 149 to 151 | – | – | – | 1.690 | about 10 % by mass | – | – | – | – | – |
| C=CSc1cccc2c(SC=C)cccc12 [Example 15DVNDSH, 1,5-bis(vinylthio)naphthalene] | – | 39.0 % by mass | 43.6 % by mass | 26.3 % by mass | 45.8 % by mass | 59.6 % by mass | 50 to 52 | 1.685 | – | – | – | – | – | – | – | – | – |
| Sc1cccc2c(S)cccc12 [Example 15NDSH, 1,5-naphthalenedithiol] | – | 7.05 % by mass | – | 7.44 % by mass | – | 7.26 % by mass | – | – | 34.4 | 29.0 | 1.711 | – | 1.08 | about 5 % by mass | about 0.1 % by mass | – | – |
| C=CC(=O)Sc1cccc2c(SC(=O)C=C)cccc12 [Example 15NDSHA, 1,5-bis(acryloylthio)naphthalene] | – | 1.57 % by mass | 1.93 % by mass | 1.50 % by mass | 4.24 % by mass | 2.61 % by mass | 156 to 158 | 1.646 | – | – | – | – | – | – | – | – | – |
| C=C(C)C(=O)Sc1cccc2c(SC(=O)C(=C)C)cccc12 [Example 15NDSHMA, 1,5-bis(methacryloylthio)naphthalene] | – | 4.36 % by mass | 5.22 % by mass | 3.34 % by mass | 10.4 % by mass | 6.73 % by mass | – | 1.638 | 13.2 | 18.7 | – | – | 0.36 | – | – | about 10 % by mass | – |
| C=CCSc1ccc2c(SCC=C)cccc2c1 [Example 16DANDSH, 1,6-bis(allylthio)naphthalene] | – | Freely blended (>90) % by mass | Freely blended (>90) % by mass | Freely blended (>90) % by mass | Freely blended (>90) % by mass | Freely blended (>90) % by mass | – | – | – | – | – | – | – | – | – | – | 1.667 |
| O=C(O)CSc1ccc2c(SCC(=O)O)cccc2c1 [Example 16DCNDSH, 1,6-bis(carboxymethylthio)naphthalene] | – | 0.56 % by mass | 0.14 % by mass | 0.98 % by mass | – | – | 176 to 178 | – | 61.0 | 30.5 | 1.663 | – | – | – | – | – | – |
| c1cc(SCC2CO2)c2ccc(SCC3CO3)cc2c1 (stereo not shown) [Example 16DGNDSH, 1,6-bis(glycidylthio)naphthalene] | – | Freely blended (>90) % by mass | Freely blended (>90) % by mass | Freely blended (>90) % by mass | Freely blended (>90) % by mass | Freely blended (>90) % by mass | – | – | – | – | – | – | – | – | – | – | 1.665 |
| OCCSc1ccc2c(SCCO)cccc2c1 [Example 16DHENDSH, 1,6-bis(2-hydroxyethylthio)naphthalene] | – | Freely blended (>90) % by mass | Freely blended (>90) % by mass | Freely blended (>90) % by mass | 2.87 % by mass | 1.69 % by mass | – | – | – | – | – | – | – | – | – | – | 1.672 |
| C=CSc1ccc2c(SC=C)cccc2c1 [Example 16DVNDSH, 1,6-bis(vinylthio)naphthalene] | – | Freely blended (>90) % by mass | Freely blended (>90) % by mass | Freely blended (>90) % by mass | Freely blended (>90) % by mass | Freely blended (>90) % by mass | – | – | – | – | – | – | – | – | – | – | 1.699 |
| Sc1ccc2c(S)cccc2c1 [Example 16NDSH, 1,6-naphthalenedithiol] | – | – | – | – | – | – | – | – | – | – | 1.722 | – | 19.3 | – | – | – | – |
| C=C(C)C(=O)Sc1ccc2c(SC(=O)C(=C)C)cccc2c1 [Example 16NDSHMA, 1,6-bis(methacryloylthio)naphthalene] | – | 44.6 % by mass | 44.1 % by mass | 31.1 % by mass | 51.1 % by mass | 50.7 % by mass | – | 1.647 | 59.5 | 67.6 | – | – | 2.49 | – | – | – | – |
| C=C(C)C(=O)Sc1ccc2cc(SC(=O)C(=C)C)ccc2c1 [Example 26NDSHMA, 2,6-bis(methacryloylthio)naphthalene] | – | 1.08 % by mass | 2.42 % by mass | 1.46 % by mass | 5.00 % by mass | 3.73 % by mass | – | 1.651 | 4.59 | 9.59 | – | – | 0.13 | – | – | – | – |
| C=C(C)C(=O)Sc1ccc2ccc(SC(=O)C(=C)C)cc2c1 [Example 27NDSHMA, 2,7-bis(methacryloylthio)naphthalene] | – | 3.20 % by mass | 4.36 % by mass | 2.68 % by mass | 7.92 % by mass | 6.84 % by mass | – | 1.649 | 17.5 | 13.1 | – | – | 0.20 | – | – | – | – |
| C=Cc1ccccc1 [styrene] | 1.544 | – | – | – | – | – | – | – | – | – | – | – | – | – | – | – | – |
